The data set is described as follows: Metabolic stability in cryopreserved human hepatocytes. The note with it: human, cryopreserved human hepatocytes (pooled, suspension). The class given is in vitro ADME.
Setting [1] is: Figures 3-5, cryopreserved human hepatocytes, read-out: half-life (t1/2).
Where [2] appears, read: Table S1, PROTACs, cryopreserved human hepatocytes, read-out: t1/2.
[3] abbreviates: supplement CSV, human hepatocytes, read-out: HLH t1/2.

Where two headings read alike, the source gives them in different places.

Procedure: Cryopreserved human hepatocytes (pooled suspension hepatocytes, Gibco) were thawed placing in a 37 °C shaking water bath according to the manufacturer’s specifications and resuspended in Williams E medium (WEM) to have 1 × 10^6 cells/mL. Samples with the test compound at 1 μM were incubated at 37 °C, and aliquots of 50 μL were collected at 0, 10, 30, 60, 120, and 240 min. The incubations were quenched 1:3 with ice-cold acetonitrile (containing 1 μM labetalol as the internal standard). Samples were then centrifuged at 12000 rpm for 5 min at 4 °C. The supernatant was concentrated by evaporation under a nitrogen stream and reconstituted with DMSO. Blank was prepared similarly but in the absence of the investigated compounds.
A Thermo Q-exactive mass spectrometer (Thermo Fisher Scientific, Waltham, MA) was used. The LC system, governed by Chromeleon X-press software, consists of a Binary pump, a thermostated autosampler, and a column compartment, all Dionex Ultimate 3000 series modules (Thermo Fisher Scientific, Waltham, MA). A volume of 2 μL was injected for each sample. Chromatographic separation of analytes was conducted in reverse-phase chromatography. In brief, a Luna Omega 1.6 μm Polar (C18, 2.1 mm × 150 mm) was used, and the mobile phases consisted of water (A) and acetonitrile (B), both containing formic acid at 0.1%. The LC flow was set at 0.400 mL/min in a 12 min gradient elution as follows: 99.5:0.5 (A/B) to 5:95 (A/B) over 10 min, 5:95 (A/B) for 2 min, and then reversion back to 99.5:0.5 (A/B) over 2.5 min. The column was operating at a constant temperature of 40 °C.

As to `Cc1sc2c(c1C)C(c1ccc(Cl)cc1)=N[C@@H](CC(=O)NCCCCCCCCNC(=O)COc1cccc3c1C(=O)N(C1CCC(=O)NC1=O)C3=O)c1nnc(C)n1-2` (some centres unmarked) [Compound 2, dBet6, reference compound], the half-life at 1 µM reads like this: under setting [1], 0.303 h; under setting [2], 0.303 h; under setting [3], 0.303 h.
Take `Cc1sc2c(c1C)C(c1ccc(Cl)cc1)=N[C@@H](CC(=O)Nc1ccc(OCCOCCOCCOCCNc3cccc4c3C(=O)N(C3CCC(=O)NC3=O)C4=O)cc1)c1nnc(C)n1-2` (some centres unmarked) [Compound 3, ARV-825, reference compound]: the half-life at 1 µM under setting [2] was 0.462 h and the half-life at 1 µM under setting [3] turned out to be 0.462 h.
`Cc1sc2c(c1C)C(c1ccc(Cl)cc1)=N[C@@H](CC(=O)NCCCN1CCN(CCCNc3cccc4c3C(=O)N(C3CCC(=O)NC3=O)C4=O)CC1)c1nnc(C)n1-2` (stereo partly drawn) [Compound 6, 2-((S)-4-(4-Chlorophenyl)-2,3,9-trimethyl-6H-thieno[3,2-f][1,2,4]triazolo[4,3-a][1,4]diazepin-6-yl)-N-(3-(4-(3-((2-(2,6-dioxopiperidin-3-yl)-1,3-dioxoisoindolin-4-yl)amino)propyl)piperazin-1-yl)propyl)acetamide]: the half-life at 1 µM runs as follows: under setting [1], 1.45 h; under setting [2], 1.45 h; under setting [3], 1.45 h.
For `Cc1ncsc1-c1ccc(CNC(=O)[C@@H]2C[C@@H](O)CN2C(=O)[C@@H](NC(=O)COCCOCCOCCNC(=O)C[C@@H]2N=C(c3ccc(Cl)cc3)c3c(sc(C)c3C)-n3c(C)nnc32)C(C)(C)C)cc1` [Compound 7, MZ1, reference compound], the half-life at 1 µM amounted to 3.5 h under setting [2] and 3.5 h under setting [3].
For `Cc1ncsc1-c1ccc([C@H](C)NC(=O)[C@@H]2C[C@@H](O)CN2C(=O)[C@@H](NC(=O)CCCCCCNC(=O)C[C@@H]2N=C(c3ccc(Cl)cc3)c3c(sc(C)c3C)-n3c(C)nnc32)C(C)(C)C)cc1` [Compound 8, (2S,4R)-1-((S)-2-(7-(2-((S)-4-(4-Chlorophenyl)-2,3,9-trimethyl-6H-thieno[3,2-f][1,2,4]triazolo[4,3-a][1,4]diazepin-6-yl)acetamido)heptanamido)-3,3-dimethylbutanoyl)-4-hydroxy-N-((S)-1-(4-(4-methylthiazol-5-yl)phenyl)ethyl)pyrrolidine-2-carboxamide], the half-life at 1 µM under setting [2] stood at 1.36 h and the half-life at 1 µM under setting [3] came to 1.36 h.
In the case of `Cc1ncsc1-c1ccc([C@H](C)NC(=O)[C@@H]2C[C@@H](O)CN2C(=O)[C@@H](NC(=O)COCCOCCNC(=O)C[C@@H]2N=C(c3ccc(Cl)cc3)c3c(sc(C)c3C)-n3c(C)nnc32)C(C)(C)C)cc1` [Compound 9, (2S,4R)-1-((S)-2-(tert-Butyl)-14-((S)-4-(4-chlorophenyl)-2,3,9-trimethyl-6H-thieno[3,2-f][1,2,4]triazolo[4,3-a][1,4]diazepin-6-yl)-4,13-dioxo-6,9-dioxa-3,12-diazatetradecanoyl)-4-hydroxy-N-((S)-1-(4-(4-methylthiazol-5-yl)phenyl)ethyl)pyrrolidine-2-carboxamide], the half-life at 1 µM was 2.28 h under setting [2] and 2.28 h under setting [3].
Take `Cc1ncsc1-c1ccc([C@H](C)NC(=O)[C@@H]2C[C@@H](O)CN2C(=O)[C@@H](NC(=O)COCCCOCCNC(=O)C[C@@H]2N=C(c3ccc(Cl)cc3)c3c(sc(C)c3C)-n3c(C)nnc32)C(C)(C)C)cc1` [Compound 10, ARV-771, reference compound]: the half-life at 1 µM under setting [2] was determined as 2.52 h and the half-life at 1 µM under setting [3] turned out to be 2.52 h.
On to `O=C(COc1cccc2c1C(=O)N(C1CCC(=O)NC1=O)C2=O)NCCCCCCCCNC(=O)c1ccc2c(c1)nc(Nc1cccc(Cl)c1)c1ccncc12` (centres unmarked) [Compound 12, 5-((3-Chlorophenyl)amino)-N-(8-(2-((2-(2,6-dioxopiperidin-3-yl)-1,3-dioxoisoindolin-4-yl)oxy)acetamido)octyl)benzo[c][2,6]naphthyridine-8-carboxamide], for which the half-life at 1 µM by setting is: under setting [2], 0.69 h; under setting [3], 0.69 h.
Regarding `O=C(COc1cccc2c1C(=O)N(C1CCC(=O)NC1=O)C2=O)NCCCCCCCCCCNC(=O)c1ccc2c(c1)nc(Nc1cccc(Cl)c1)c1ccncc12` (centres unmarked) [Compound 13, 5-((3-Chlorophenyl)amino)-N-(10-(2-((2-(2,6-dioxopiperidin-3-yl)-1,3-dioxoisoindolin-4-yl)oxy)acetamido)decyl)benzo[c][2,6]naphthyridine-8-carboxamide], the half-life at 1 µM under setting [2] was found to be 0.56 h and the half-life at 1 µM under setting [3] turned out to be 0.56 h.
On to `O=C(COc1cccc2c1C(=O)N(C1CCC(=O)NC1=O)C2=O)NCCOCCOCCOCCNC(=O)c1ccc2c(c1)nc(Nc1cccc(Cl)c1)c1ccncc12` (centres unmarked) [Compound 14, 5-((3-Chlorophenyl)amino)-N-(1-((2-(2,6-dioxopiperidin-3-yl)-1,3-dioxoisoindolin-4-yl)oxy)-2-oxo-6,9,12-trioxa-3-azatetradecan-14-yl)benzo[c][2,6]naphthyridine-8-carboxamide], for which the half-life at 1 µM is, setting by setting: under setting [2], 1.28 h; under setting [3], 1.28 h.
For `O=C1CCC(N2C(=O)c3cccc(NCCCCCCNC(=O)c4ccc5c(c4)nc(Nc4cccc(Cl)c4)c4ccncc45)c3C2=O)C(=O)N1` (centres unmarked) [Compound 16, 5-((3-Chlorophenyl)amino)-N-(6-((2-(2,6-dioxopiperidin-3-yl)-1,3-dioxoisoindolin-4-yl)amino)hexyl)benzo[c][2,6]naphthyridine-8-carboxamide], the half-life at 1 µM is, setting by setting: under setting [2], 0.578 h; under setting [3], 0.578 h.
With `Cc1ncsc1-c1ccc([C@H](C)NC(=O)[C@@H]2C[C@@H](O)CN2C(=O)[C@@H](NC(=O)CCCCNC(=O)c2ccc3c(c2)nc(Nc2cccc(Cl)c2)c2ccncc23)C(C)(C)C)cc1` [Compound 17, 5-((3-Chlorophenyl)amino)-N-(5-(((S)-1-((2S,4R)-4-hydroxy-2-(((S)-1-(4-(4-methylthiazol-5-yl)phenyl)ethyl)carbamoyl)pyrrolidin-1-yl)-3,3-dimethyl-1-oxobutan-2-yl)amino)-5-oxopentyl)benzo[c][2,6]naphthyridine-8-carboxamide], the half-life at 1 µM reads like this: under setting [1], 3.4 h; under setting [2], 3.4 h; under setting [3], 3.4 h.
Regarding `Cc1ncsc1-c1ccc([C@H](C)NC(=O)[C@@H]2C[C@@H](O)CN2C(=O)[C@@H](NC(=O)CCCCCCNC(=O)c2ccc3c(c2)nc(Nc2cccc(Cl)c2)c2ccncc23)C(C)(C)C)cc1` [Compound 18, 5-((3-Chlorophenyl)amino)-N-(7-(((S)-1-((2S,4R)-4-hydroxy-2-(((S)-1-(4-(4-methylthiazol-5-yl)phenyl)ethyl)carbamoyl)pyrrolidin-1-yl)-3,3-dimethyl-1-oxobutan-2-yl)amino)-7-oxoheptyl)benzo[c][2,6]naphthyridine-8-carboxamide], the half-life at 1 µM is, setting by setting: under setting [1], 3.48 h; under setting [2], 3.48 h; under setting [3], 3.48 h.
On to `Cc1ncsc1-c1ccc([C@H](C)NC(=O)[C@@H]2C[C@@H](O)CN2C(=O)[C@@H](NC(=O)COCCCNC(=O)c2ccc3c(c2)nc(Nc2cccc(Cl)c2)c2ccncc23)C(C)(C)C)cc1` [Compound 19, 5-((3-Chlorophenyl)amino)-N-(3-(2-(((S)-1-((2S,4R)-4-hydroxy-2-(((S)-1-(4-(4-methylthiazol-5-yl)phenyl)ethyl)carbamoyl)pyrrolidin-1-yl)-3,3-dimethyl-1-oxobutan-2-yl)amino)-2-oxoethoxy)propyl)benzo[c][2,6]naphthyridine-8-carboxamide], for which the half-life at 1 µM was determined as 2.65 h under setting [2] and 2.65 h under setting [3].

For the origin of these results see article PMC8015227, “Understanding the Metabolism of Proteolysis Targeting Chimeras (PROTACs): The Next Step toward Pharmaceutical Applications” (Journal of Medicinal Chemistry, 2020).
